ChEMBL document CHEMBL5291721, “A preclinical secondary pharmacology resource illuminates target-adverse drug reaction associations of marketed drugs” (Nat Commun, 2023)

Key:
[1] = target: T1, Adenosine receptor A3 (Homo sapiens, UniProt P0DMS8)
T1 sequence (P0DMS8 whole entry): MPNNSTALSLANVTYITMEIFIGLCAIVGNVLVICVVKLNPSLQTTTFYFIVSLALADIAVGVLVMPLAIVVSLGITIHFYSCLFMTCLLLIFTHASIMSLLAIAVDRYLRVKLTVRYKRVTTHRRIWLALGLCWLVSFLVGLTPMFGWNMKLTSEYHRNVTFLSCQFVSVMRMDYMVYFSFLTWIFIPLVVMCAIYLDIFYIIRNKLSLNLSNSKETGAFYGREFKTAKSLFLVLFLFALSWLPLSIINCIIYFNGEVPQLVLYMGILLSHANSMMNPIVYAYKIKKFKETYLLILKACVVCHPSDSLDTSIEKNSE

[2] = target: T2, Thromboxane A2 receptor (Homo sapiens, UniProt P21731); type: functional, cell-based
T2 sequence (P21731 whole entry): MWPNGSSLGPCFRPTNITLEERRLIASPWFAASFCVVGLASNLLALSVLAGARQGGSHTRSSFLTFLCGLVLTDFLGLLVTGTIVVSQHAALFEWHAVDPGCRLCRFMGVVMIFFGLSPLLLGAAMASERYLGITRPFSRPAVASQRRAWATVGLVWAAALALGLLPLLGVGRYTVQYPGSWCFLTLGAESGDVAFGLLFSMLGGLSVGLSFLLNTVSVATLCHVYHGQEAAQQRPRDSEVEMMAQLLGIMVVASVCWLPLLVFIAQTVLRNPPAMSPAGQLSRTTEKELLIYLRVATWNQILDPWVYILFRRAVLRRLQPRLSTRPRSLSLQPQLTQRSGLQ

[3] = target: T3, Alpha-1A adrenergic receptor (Homo sapiens, UniProt P35348); type: functional, cell-based
T3 sequence (P35348 whole entry): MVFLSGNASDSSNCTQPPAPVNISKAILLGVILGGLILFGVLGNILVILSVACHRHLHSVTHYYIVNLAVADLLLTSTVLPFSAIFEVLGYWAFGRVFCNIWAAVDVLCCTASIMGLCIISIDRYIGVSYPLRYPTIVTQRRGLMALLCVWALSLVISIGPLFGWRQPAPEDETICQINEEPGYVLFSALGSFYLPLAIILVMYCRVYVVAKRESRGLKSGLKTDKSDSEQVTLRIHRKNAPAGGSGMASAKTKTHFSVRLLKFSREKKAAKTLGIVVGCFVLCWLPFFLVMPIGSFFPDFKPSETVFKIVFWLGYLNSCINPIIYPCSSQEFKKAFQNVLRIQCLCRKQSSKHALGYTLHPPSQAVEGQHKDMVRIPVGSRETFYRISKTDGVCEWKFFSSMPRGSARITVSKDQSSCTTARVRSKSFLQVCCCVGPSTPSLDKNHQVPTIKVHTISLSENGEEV

[4] = target: cGMP-inhibited 3',5'-cyclic phosphodiesterase 3A (Homo sapiens, UniProt Q14432); type: functional
[5] = target: T4, 5-hydroxytryptamine receptor 1A (Homo sapiens, UniProt P08908)
T4 sequence (P08908 whole entry): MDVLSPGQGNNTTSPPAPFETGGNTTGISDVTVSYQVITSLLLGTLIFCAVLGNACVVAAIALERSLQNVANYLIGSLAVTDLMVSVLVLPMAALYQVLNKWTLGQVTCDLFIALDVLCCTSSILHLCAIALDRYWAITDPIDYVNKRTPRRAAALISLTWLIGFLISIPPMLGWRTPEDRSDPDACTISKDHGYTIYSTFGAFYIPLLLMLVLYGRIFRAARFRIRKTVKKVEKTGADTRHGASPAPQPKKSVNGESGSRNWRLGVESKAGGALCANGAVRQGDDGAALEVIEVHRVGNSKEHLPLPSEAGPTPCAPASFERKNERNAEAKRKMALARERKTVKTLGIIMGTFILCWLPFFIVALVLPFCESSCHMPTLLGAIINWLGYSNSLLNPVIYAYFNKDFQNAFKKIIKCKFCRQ

[6] = target: Prostaglandin G/H synthase 1 (Homo sapiens, UniProt P23219); type: functional
[7] = target: Acetylcholinesterase (Homo sapiens, UniProt P22303); type: functional
[8] = target: T5, Progesterone receptor (Homo sapiens, UniProt P06401)
T5 sequence (P06401 whole entry): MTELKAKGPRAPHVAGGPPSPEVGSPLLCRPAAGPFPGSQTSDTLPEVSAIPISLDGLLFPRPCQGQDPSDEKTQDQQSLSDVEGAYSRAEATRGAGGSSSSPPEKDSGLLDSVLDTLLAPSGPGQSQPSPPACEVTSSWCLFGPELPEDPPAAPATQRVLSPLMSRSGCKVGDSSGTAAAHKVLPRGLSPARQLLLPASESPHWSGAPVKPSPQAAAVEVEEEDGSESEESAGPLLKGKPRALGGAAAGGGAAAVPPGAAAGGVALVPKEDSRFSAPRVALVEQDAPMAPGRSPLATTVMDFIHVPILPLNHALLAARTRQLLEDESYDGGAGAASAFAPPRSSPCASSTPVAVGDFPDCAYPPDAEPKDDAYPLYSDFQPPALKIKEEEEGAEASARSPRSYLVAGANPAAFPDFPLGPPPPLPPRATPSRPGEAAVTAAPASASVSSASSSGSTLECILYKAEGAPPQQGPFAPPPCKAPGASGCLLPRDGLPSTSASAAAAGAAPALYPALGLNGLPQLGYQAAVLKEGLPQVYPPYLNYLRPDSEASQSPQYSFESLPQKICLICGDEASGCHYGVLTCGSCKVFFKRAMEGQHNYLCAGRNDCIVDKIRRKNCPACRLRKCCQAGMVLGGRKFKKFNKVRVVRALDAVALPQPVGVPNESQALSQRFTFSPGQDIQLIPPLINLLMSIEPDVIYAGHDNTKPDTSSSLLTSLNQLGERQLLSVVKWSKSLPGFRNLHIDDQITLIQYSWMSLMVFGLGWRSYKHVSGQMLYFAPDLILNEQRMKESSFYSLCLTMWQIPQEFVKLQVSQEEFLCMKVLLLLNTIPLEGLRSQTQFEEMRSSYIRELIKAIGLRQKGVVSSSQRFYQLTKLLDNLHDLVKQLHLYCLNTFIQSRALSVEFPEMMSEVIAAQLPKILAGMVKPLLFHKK

[9] = target: Sodium-dependent serotonin transporter (Homo sapiens, UniProt P31645)
Also: assay procedure not described here.

Acetylcholinesterase, sequence (P22303 whole entry): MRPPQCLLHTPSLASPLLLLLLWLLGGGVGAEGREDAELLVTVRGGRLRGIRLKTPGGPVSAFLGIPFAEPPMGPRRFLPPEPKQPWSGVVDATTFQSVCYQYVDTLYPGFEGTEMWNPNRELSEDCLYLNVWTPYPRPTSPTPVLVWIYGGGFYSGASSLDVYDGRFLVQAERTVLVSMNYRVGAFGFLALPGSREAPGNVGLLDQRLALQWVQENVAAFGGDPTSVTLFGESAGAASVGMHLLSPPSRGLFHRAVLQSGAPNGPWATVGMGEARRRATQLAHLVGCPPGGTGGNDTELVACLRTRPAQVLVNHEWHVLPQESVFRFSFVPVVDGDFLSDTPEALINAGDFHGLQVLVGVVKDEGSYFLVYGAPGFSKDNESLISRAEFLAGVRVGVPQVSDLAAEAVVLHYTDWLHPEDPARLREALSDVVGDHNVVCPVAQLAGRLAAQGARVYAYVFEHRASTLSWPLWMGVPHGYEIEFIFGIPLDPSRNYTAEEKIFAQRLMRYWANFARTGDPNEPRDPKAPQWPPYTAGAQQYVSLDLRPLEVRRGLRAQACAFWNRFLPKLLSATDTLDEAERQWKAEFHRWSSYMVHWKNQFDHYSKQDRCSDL
Prostaglandin G/H synthase 1, sequence (P23219 whole entry): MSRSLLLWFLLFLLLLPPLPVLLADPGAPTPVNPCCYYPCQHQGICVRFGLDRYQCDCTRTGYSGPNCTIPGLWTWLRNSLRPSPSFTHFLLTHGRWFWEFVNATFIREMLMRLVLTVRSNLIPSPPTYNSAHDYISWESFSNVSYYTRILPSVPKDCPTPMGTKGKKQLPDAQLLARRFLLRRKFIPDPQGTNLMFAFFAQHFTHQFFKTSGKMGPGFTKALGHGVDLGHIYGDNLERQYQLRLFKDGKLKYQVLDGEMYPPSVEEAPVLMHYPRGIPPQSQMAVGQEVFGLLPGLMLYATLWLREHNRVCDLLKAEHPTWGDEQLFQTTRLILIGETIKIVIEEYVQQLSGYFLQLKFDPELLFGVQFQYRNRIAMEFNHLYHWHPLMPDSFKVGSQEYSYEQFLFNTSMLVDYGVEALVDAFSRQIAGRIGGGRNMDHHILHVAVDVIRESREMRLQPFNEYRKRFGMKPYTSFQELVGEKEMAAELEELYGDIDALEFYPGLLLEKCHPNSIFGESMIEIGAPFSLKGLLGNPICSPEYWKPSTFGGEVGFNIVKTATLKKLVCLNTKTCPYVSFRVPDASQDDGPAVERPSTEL
cGMP-inhibited 3',5'-cyclic phosphodiesterase 3A, sequence (Q14432 whole entry): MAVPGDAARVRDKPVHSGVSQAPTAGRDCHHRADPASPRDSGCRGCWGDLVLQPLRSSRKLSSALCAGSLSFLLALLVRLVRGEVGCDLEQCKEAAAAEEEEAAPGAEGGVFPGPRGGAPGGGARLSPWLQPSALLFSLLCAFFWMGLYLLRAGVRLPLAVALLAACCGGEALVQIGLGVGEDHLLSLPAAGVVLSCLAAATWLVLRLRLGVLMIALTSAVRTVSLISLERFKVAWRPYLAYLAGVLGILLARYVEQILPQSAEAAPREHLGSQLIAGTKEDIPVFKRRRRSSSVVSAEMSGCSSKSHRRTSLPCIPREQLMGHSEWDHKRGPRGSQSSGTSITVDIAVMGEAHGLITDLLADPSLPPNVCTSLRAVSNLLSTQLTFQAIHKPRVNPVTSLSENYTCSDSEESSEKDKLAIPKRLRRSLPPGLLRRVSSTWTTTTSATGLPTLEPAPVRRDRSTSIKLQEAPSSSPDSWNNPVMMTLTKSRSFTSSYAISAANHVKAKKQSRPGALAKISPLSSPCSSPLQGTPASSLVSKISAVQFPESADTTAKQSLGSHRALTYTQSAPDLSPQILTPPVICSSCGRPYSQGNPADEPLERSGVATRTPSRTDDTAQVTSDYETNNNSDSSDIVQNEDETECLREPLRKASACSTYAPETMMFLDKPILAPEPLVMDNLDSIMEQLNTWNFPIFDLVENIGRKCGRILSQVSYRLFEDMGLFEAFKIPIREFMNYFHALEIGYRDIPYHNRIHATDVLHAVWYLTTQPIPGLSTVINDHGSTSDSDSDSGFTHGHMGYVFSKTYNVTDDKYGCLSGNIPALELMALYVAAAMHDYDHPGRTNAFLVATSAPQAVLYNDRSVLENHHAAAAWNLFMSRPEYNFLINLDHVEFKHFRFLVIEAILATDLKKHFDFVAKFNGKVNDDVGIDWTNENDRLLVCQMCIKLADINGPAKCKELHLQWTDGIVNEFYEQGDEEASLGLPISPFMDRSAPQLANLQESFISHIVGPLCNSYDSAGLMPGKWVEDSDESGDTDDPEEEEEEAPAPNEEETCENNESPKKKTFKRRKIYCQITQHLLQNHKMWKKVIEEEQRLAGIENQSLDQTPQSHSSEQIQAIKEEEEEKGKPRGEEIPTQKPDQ
Sodium-dependent serotonin transporter, sequence (P31645 whole entry): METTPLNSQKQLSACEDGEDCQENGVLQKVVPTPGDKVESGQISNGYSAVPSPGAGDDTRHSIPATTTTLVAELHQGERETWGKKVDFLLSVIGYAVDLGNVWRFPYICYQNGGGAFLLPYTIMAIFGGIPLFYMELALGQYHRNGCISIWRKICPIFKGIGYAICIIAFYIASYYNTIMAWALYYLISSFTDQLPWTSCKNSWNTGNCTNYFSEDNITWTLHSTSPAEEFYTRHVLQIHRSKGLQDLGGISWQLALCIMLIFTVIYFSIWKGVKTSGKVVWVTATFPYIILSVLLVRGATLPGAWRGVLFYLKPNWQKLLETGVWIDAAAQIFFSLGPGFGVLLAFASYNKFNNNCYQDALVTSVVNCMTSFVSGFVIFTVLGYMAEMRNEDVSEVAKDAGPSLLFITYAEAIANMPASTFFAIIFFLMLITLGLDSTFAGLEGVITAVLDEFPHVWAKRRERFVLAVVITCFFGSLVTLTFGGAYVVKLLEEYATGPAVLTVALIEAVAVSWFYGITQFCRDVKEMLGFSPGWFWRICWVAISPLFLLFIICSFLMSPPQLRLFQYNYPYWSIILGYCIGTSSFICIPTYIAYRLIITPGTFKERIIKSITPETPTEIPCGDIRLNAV

## OC(CCCN1CCCCC1)(c1ccccc1)c1ccccc1 [DIPHENIDOL]
[1]
  AC50: > 30 µM
[2]
  AC50: > 30 µM
[3]
  AC50: > 30 µM
[4]
  AC50: > 30 µM
[5]
  AC50: 6.87 µM
[6]
  AC50: > 30 µM
[7]
  AC50: > 30 µM
[8]
  AC50: > 30 µM

## O=C(CCCN1CC=C(n2c(=O)[nH]c3ccccc32)CC1)c1ccc(F)cc1 [DROPERIDOL]
[1]
  AC50: > 30 µM
[2]
  AC50: > 30 µM
[3]
  AC50: > 30 µM
[4]
  AC50: > 30 µM
[5]
  AC50: > 30 µM
[6]
  AC50: > 30 µM
[7]
  AC50: > 30 µM
[8]
  AC50: > 30 µM

## CCn1cc(C(=O)O)c(=O)c2cc(F)c(N3CCNCC3)nc21 [ENOXACIN]
[1]
  AC50: > 30 µM
[2]
  AC50: > 30 µM
[3]
  AC50: > 30 µM
[4]
  AC50: > 30 µM
[5]
  AC50: > 30 µM
[6]
  AC50: > 30 µM
[7]
  AC50: > 30 µM
[8]
  AC50: > 30 µM

## CCC(=O)O[C@@H]1CC(=O)O[C@H](C)C/C=C/C=C/[C@H](OC(C)=O)[C@H](C)C[C@H](CC=O)[C@H](O[C@@H]2O[C@H](C)[C@@H](O[C@H]3C[C@@](C)(OC(C)=O)[C@@H](OC(=O)CC)[C@H](C)O3)[C@H](N(C)C)[C@H]2O)[C@H]1OC [MIOCAMYCIN]
[2]
  AC50: > 30 µM
[4]
  AC50: > 30 µM
[5]
  AC50: > 30 µM
[6]
  AC50: > 30 µM
[7]
  AC50: > 30 µM
[8]
  AC50: > 30 µM
[9]
  AC50: > 30 µM

## CNC(=O)Oc1ccc2c(c1)[C@]1(C)CCN(C)[C@@H]1N2C [PHYSOSTIGMINE]
[1]
  AC50: > 30 µM
[2]
  AC50: > 30 µM
[3]
  AC50: > 30 µM
[4]
  AC50: > 30 µM
[5]
  AC50: > 30 µM
[6]
  AC50: > 10 µM
[8]
  AC50: > 30 µM

## COCCCOc1ccnc(C[S+]([O-])c2nc3ccccc3[nH]2)c1C (stereo not given) [RABEPRAZOLE]
[2]
  AC50: > 30 µM
[3]
  AC50: > 30 µM
[4]
  AC50: > 30 µM
[5]
  AC50: 12.8 µM
[6]
  AC50: 0.71 µM
[7]
  AC50: 16.7 µM
[8]
  AC50: > 30 µM

## O=C(Oc1ccccc1C(=O)O)c1ccccc1O [SALSALATE]
[1]
  AC50: > 30 µM
[2]
  AC50: > 30 µM
[3]
  AC50: > 30 µM
[4]
  AC50: > 30 µM
[5]
  AC50: > 30 µM
[6]
  AC50: > 30 µM
[7]
  AC50: > 30 µM
[8]
  AC50: > 30 µM

## O=C(CCCN1CCC2(CC1)C(=O)NCN2c1ccccc1)c1ccc(F)cc1 [SPIPERONE]
[3]
  AC50: 0.081 µM

## c1ccc2[nH]c(-c3cscn3)nc2c1 [THIABENDAZOLE]
[1]
  AC50: 3.73 µM
[2]
  AC50: > 30 µM
[3]
  AC50: > 30 µM
[4]
  AC50: > 30 µM
[5]
  AC50: > 30 µM
[6]
  AC50: > 30 µM
[7]
  AC50: > 30 µM
[8]
  AC50: > 30 µM

## C[C@@H]1C[C@H]2[C@@H]3CCC4=CC(=O)C=C[C@]4(C)C3=CC[C@]2(C)[C@H]1C(=O)CN1CCN(c2cc(N3CCCC3)nc(N3CCCC3)n2)CC1 [TIRILAZAD]
[1]
  AC50: 4.07 µM
[2]
  AC50: > 30 µM
[3]
  AC50: > 30 µM
[4]
  AC50: > 30 µM
[5]
  AC50: > 30 µM
[6]
  AC50: 3.8 µM
[7]
  AC50: > 30 µM
[8]
  AC50: 6.37 µM
